# Measurements reported in patent US8088815B2, “Spiroindolinone pyrrolidines” (Hoffman-La Roche Inc., priority 2009, dated 2012).
# Target: interaction between p53 and MDM2 proteins (Homo sapiens, UniProt Q00987)
# Assay: HTRF assay of inhibition of the p53-MDM2 interaction (GST-MDM2 / biotinylated p53 peptide)
# Assay type: binding
# Details: recombinant GST-tagged MDM2 and biotinylated p53 peptide, bsa:0.02%
# Description: The ability of the compounds to inhibit the interaction between p53 and MDM2 proteins was measured by an HTRF (homogeneous time-resolved fluorescence) assay in which recombinant GST-tagged MDM2 binds to a peptide that resembles the MDM2-interacting region of p53. Binding of GST-MDM2 protein and p53-peptide (biotinylated on its N-terminal end) is registered by the FRET (fluorescence resonance energy transfer) between Europium (Eu)-labeled anti-GST antibody and streptavidin-conjugated Allophycocyanin (APC).
# Add 10 uL diluted compounds (1:5 dilution in reaction buffer) to each well, mix by shaking. Add 20 uL biotinylated p53 peptide (180 nM working solution) in reaction buffer to each well and mix on shaker. Incubate at 37° C. for 1 h. Add 20 uL streptavidin-APC and Eu-anti-GST antibody mixture (6 nM Eu-anti-GST and 60 nM streptavidin-APC working solution) in TBS buffer with 0.2% BSA, shake at room temperature for 30 minutes and read using a TRF-capable plate reader at
# 665 and 615 nm (Victor 5, Perkin ElmerWallac). If not specified, the reagents were purchased from Sigma Chemical Co.
# Chain of interaction between p53 and MDM2 proteins (Q00987 whole entry): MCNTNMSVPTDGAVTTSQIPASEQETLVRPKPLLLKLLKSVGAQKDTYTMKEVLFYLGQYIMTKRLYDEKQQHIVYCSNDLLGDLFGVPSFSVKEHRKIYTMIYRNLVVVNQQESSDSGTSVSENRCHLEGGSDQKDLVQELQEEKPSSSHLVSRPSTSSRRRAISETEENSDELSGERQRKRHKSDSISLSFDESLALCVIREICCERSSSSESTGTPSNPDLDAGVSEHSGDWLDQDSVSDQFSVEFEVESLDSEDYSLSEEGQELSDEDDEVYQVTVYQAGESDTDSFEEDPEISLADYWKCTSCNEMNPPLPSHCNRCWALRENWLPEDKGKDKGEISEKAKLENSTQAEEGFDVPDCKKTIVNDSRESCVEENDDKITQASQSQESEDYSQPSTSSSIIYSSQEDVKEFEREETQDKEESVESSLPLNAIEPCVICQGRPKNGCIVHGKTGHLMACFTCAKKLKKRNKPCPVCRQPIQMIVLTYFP
row,Compound,IC50 [nM]
1,"COC(=O)c1ccc(NC(=O)[C@@H]2N[C@@H](CC(C)(C)C)[C@@]3(C(=O)Nc4cc(Cl)ccc43)[C@H]2c2cccc(Cl)c2F)cc1 (racemic) [Example 5, rac-4-{[(2′S,3′R,4′S,5′R)-6-chloro-4′-(3-chloro-2-fluoro-phenyl)-2′-(2,2-dimethyl-propyl)-2-oxo-1,2-dihydro-spiro[indole-3,3′-pyrrolidine]-5′-carbonyl]-amino}-benzoic acid methyl ester]",16
2,"CC(C)(C)C[C@@H]1N[C@@H](C(=O)Nc2ccc(C(=O)O)cc2)[C@H](c2cccc(Cl)c2F)[C@]12C(=O)Nc1cc(Cl)ccc12 (racemic) [Example 6, rac-4-{[(2′S,3′R,4′S,5′R)-6-chloro-4′-(3-chloro-2-fluoro-phenyl)-2′-(2,2-dimethyl-propyl)-2-oxo-1,2-dihydro-spiro[indole-3,3′-pyrrolidine]-5′-carbonyl]amino}-benzoic acid]",11
3,"CC(C)(C)C[C@@H]1N[C@@H](C(=O)Nc2ccc(C#N)cc2)[C@H](c2cccc(Cl)c2F)[C@]12C(=O)Nc1cc(Cl)ccc12 (racemic) [Example 7, rac-(2′S,3′R,4′S,5′R)-6-chloro-4′-(3-chloro-2-fluoro-phenyl)-2′-(2,2-dimethyl-propyl)-2-oxo-1,2-dihydro-spiro[indole-3,3′-pyrrolidine]-5′-carboxylic acid (4-cyano-phenyl)-amide]",14
4,"CC(C)(C)C[C@@H]1N[C@@H](C(=O)Nc2ccc(C(N)=O)cc2)[C@H](c2cccc(Cl)c2F)[C@]12C(=O)Nc1cc(Cl)ccc12 (racemic) [Example 8, rac-(2′S,3′R,4′S,5′R)-6-chloro-4′-(3-chloro-2-fluoro-phenyl)-2′-(2,2-dimethyl-propyl)-2-oxo-1,2-dihydro-spiro[indole-3,3′-pyrrolidine]-5′-carboxylic acid (4-carbamoyl-phenyl)-amide]",7
5,"CC(C)(C)C[C@@H]1N[C@@H](C(=O)Nc2ccc(S(C)(=O)=O)cc2)[C@H](c2cccc(Cl)c2F)[C@]12C(=O)Nc1cc(Cl)ccc12 (racemic) [Example 10, rac-(2′S,3′R,4′S,5′R)-6-chloro-4′-(3-chloro-2-fluoro-phenyl)-2′-(2,2-dimethyl-propyl)-2-oxo-1,2-dihydro-spiro[indole-3,3′-pyrrolidine]-5′-carboxylic acid (4-methanesulfonyl-phenyl)-amide]",13
6,"CC(=O)c1ccc(NC(=O)[C@@H]2N[C@@H](CC(C)(C)C)[C@@]3(C(=O)Nc4cc(Cl)ccc43)[C@H]2c2cccc(Cl)c2F)cc1 (racemic) [Example 11, rac-(2′S,3′R,4′S,5′R)-6-chloro-4′-(3-chloro-2-fluoro-phenyl)-2′-(2,2-dimethyl-propyl)-2-oxo-1,2-dihydro-spiro[indole-3,3′-pyrrolidine]-5′-carboxylic acid (4-acetyl-phenyl)-amide]",13
7,"CC(C)(C)C[C@@H]1N[C@@H](C(=O)Nc2ccc(F)cc2)[C@H](c2cccc(Cl)c2F)[C@]12C(=O)Nc1cc(Cl)ccc12 (racemic) [Example 13, rac-(2′S,3′R,4′S,5′R)-6-chloro-4′-(3-chloro-2-fluoro-phenyl)-2′-(2,2-dimethyl-propyl)-2-oxo-1,2-dihydro-spiro[indole-3,3′-pyrrolidine]-5′-carboxylic acid (4-fluoro-phenyl)-amide]",19
8,"COC(=O)c1ccc(NC(=O)[C@@H]2N[C@@H](CC(C)(C)C)[C@@]3(C(=O)Nc4cc(Cl)ccc43)[C@H]2c2cccc(Cl)c2F)s1 (racemic) [Example 14, rac-5-{[(2′S,3′R,4′S,5′R)-6-chloro-4′-(3-chloro-2-fluoro-phenyl)-2′-(2,2-dimethyl-propyl)-2-oxo-1,2-dihydro-spiro[indole-3,3′-pyrrolidine]-5′-carbonyl]amino}-thiophene-2-carboxylic acid methyl ester]",22

# Now from value to compound:
row,IC50 [nM],Compound
1,13,"COC(=O)c1ccc(NC(=O)[C@@H]2N[C@@H](CC(C)(C)C)[C@@]3(C(=O)Nc4cc(Cl)ccc43)[C@H]2c2cccc(Cl)c2F)cc1OC (racemic) [Example 15, rac-4-{[(2′S,3′R,4′S,5′R)-6-chloro-4′-(3-chloro-2-fluoro-phenyl)-2′-(2,2-dimethyl-propyl)-2-oxo-1,2-dihydro-spiro[indole-3,3′-pyrrolidine]-5′-carbonyl]amino}-2-methoxy-benzoic acid methyl ester]"
2,10,"COc1cc(NC(=O)[C@@H]2N[C@@H](CC(C)(C)C)[C@@]3(C(=O)Nc4cc(Cl)ccc43)[C@H]2c2cccc(Cl)c2F)ccc1C(=O)O (racemic) [Example 16, rac-4-{[(2′S,3′R,4′S,5′R)-6-chloro-4′-(3-chloro-2-fluoro-phenyl)-2′-(2,2-dimethyl-propyl)-2-oxo-1,2-dihydro-spiro[indole-3,3′-pyrrolidine]-5′-carbonyl]-amino}-2-methoxy-benzoic acid]"
3,19,"CC(C)(C)C[C@@H]1N[C@@H](C(=O)Nc2ccc(Cl)cc2)[C@H](c2cccc(Cl)c2F)[C@]12C(=O)Nc1cc(Cl)ccc12 (racemic) [Example 21, rac-(2′S,3′R,4′S,5′R)-6-chloro-4′-(3-chloro-2-fluoro-phenyl)-2′-(2,2-dimethyl-propyl)-2-oxo-1,2-dihydro-spiro[indole-3,3′-pyrrolidine]-5′-carboxylic acid (4-chloro-phenyl)-amide]"
4,11,"COc1cc(NC(=O)[C@@H]2N[C@@H](CC(C)(C)C)[C@@]3(C(=O)Nc4cc(Cl)ccc43)[C@H]2c2cccc(Cl)c2F)ccc1C(N)=O (racemic) [Example 22, rac-(2′S,3′R,4′S,5′R)-6-chloro-4′-(3-chloro-2-fluoro-phenyl)-2′-(2,2-dimethyl-propyl)-2-oxo-1,2-dihydro-spiro[indole-3,3′-pyrrolidine]-5′-carboxylic acid (4-carbamoyl-3-methoxy-phenyl)-amide]"
5,20,"COC(=O)c1ccc(NC(=O)[C@@H]2N[C@@H](CC(C)(C)C)[C@@]3(C(=O)Nc4cc(Cl)ccc43)[C@H]2c2cccc(Cl)c2F)cc1Cl (racemic) [Example 25, rac-2-chloro-4-{[(2′S,3′R,4′S,5′R)-6-chloro-4′-(3-chloro-2-fluoro-phenyl)-2′-(2,2-dimethyl-propyl)-2-oxo-1,2-dihydro-spiro[indole-3,3′-pyrrolidine]-5′-carbonyl]-amino}-benzoic acid methyl ester]"
6,17,"Cn1ccc(NC(=O)[C@@H]2N[C@@H](CC(C)(C)C)[C@@]3(C(=O)Nc4cc(Cl)ccc43)[C@H]2c2cccc(Cl)c2F)cc1=O (racemic) [Example 27, rac-(2′S,3′R,4′S,5′R)-6-chloro-4′-(3-chloro-2-fluoro-phenyl)-2′-(2,2-dimethyl-propyl)-2-oxo-1,2-dihydro-spiro[indole-3,3′-pyrrolidine]-5′-carboxylic acid (1-methyl-2-oxo-1,2-dihydro-pyridin-4-yl)-amide]"
7,14,CC(C)(C)C[C@@H]1N[C@@H](C(=O)Nc2ccn(CCO)c(=O)c2)[C@H](c2cccc(Cl)c2F)[C@]12C(=O)Nc1cc(Cl)ccc12 (racemic) [Example 30]
8,17,"COC(=O)c1cccc(NC(=O)[C@@H]2N[C@@H](CC(C)(C)C)[C@@]3(C(=O)Nc4cc(Cl)ccc43)[C@H]2c2cccc(Cl)c2F)c1 (racemic) [Example 31, rac-3-{[(2′S,3′R,4′S,5′R)-6-chloro-4′-(3-chloro-2-fluoro-phenyl)-2′-(2,2-dimethyl-propyl)-2-oxo-1,2-dihydro-spiro[indole-3,3′-pyrrolidine]-5′-carbonyl]amino}-benzoic acid methyl ester]"
9,17,"CC(C)(C)C[C@@H]1N[C@@H](C(=O)Nc2cccc(C(=O)O)c2)[C@H](c2cccc(Cl)c2F)[C@]12C(=O)Nc1cc(Cl)ccc12 (racemic) [Example 32, rac-3-{[(2′S,3′R,4′S,5′R)-6-chloro-4′-(3-chloro-2-fluoro-phenyl)-2′-(2,2-dimethyl-propyl)-2-oxo-1,2-dihydro-spiro[indole-3,3′-pyrrolidine]-5′-carbonyl]-amino}-benzoic acid]"
10,13,"CC(C)(C)C[C@@H]1N[C@@H](C(=O)Nc2cccc(C(N)=O)c2)[C@H](c2cccc(Cl)c2F)[C@]12C(=O)Nc1cc(Cl)ccc12 (racemic) [Example 33, rac-(2′S,3′R,4′S,5′R)-6-chloro-4′-(3-chloro-2-fluoro-phenyl)-2′-(2,2-dimethyl-propyl)-2-oxo-1,2-dihydro-spiro[indole-3,3′-pyrrolidine]-5′-carboxylic acid (3-carbamoyl-phenyl)-amide]"
11,18,"CN(C)C(=O)c1ccc(NC(=O)[C@@H]2N[C@@H](CC(C)(C)C)[C@@]3(C(=O)Nc4cc(Cl)ccc43)[C@H]2c2cccc(Cl)c2F)cc1 (racemic) [Example 34, rac-(2′S,3′R,4′S,5′R)-6-chloro-4′-(3-chloro-2-fluoro-phenyl)-2′-(2,2-dimethyl-propyl)-2-oxo-1,2-dihydro-spiro[indole-3,3′-pyrrolidine]-5′-carboxylic acid (4-dimethylcarbamoyl-phenyl)-amide]"
12,18,"Cc1ccc(NC(=O)[C@@H]2N[C@@H](CC(C)(C)C)[C@@]3(C(=O)Nc4cc(Cl)ccc43)[C@H]2c2cccc(Cl)c2F)cc1 (racemic) [Example 36, rac-(2′S,3′R,4′S,5′R)-6-chloro-4′-(3-chloro-2-fluoro-phenyl)-2′-(2,2-dimethyl-propyl)-2-oxo-1,2-dihydro-spiro[indole-3,3′-pyrrolidine]-5′-carboxylic acid p-tolylamide]"
